Measurements as given in ChEMBL document CHEMBL1201862, “PubChem BioAssay data set” (2004).
Activity calls are given as the source filed them. Rule as the data show it, for most assays here: actives have a measured EC50 and inactives only a lower limit.

Columns and labels:
[1] = NIH-3T3 fibroblast cytotoxicity, dose response, cytotoxicity control, cell-based, fluorescence, Alamar Blue, secondary assay (AID 2327); format: functional;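 also: NIH-3T3 mouse fibroblasts cultured with fluconazole at 8 µg/mL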
[2] = system: Streptococcus sp. 'group A'; assay: growth inhibition of control SK(-) GAS strain, dose response, counter-screen for streptokinase expression inhibitor project, luminescence, kanamycin, BacTiterGlo, confirmation (AID 1900); format: functional, organism-based
[3] = system: Streptococcus; assay: Group A Streptococcus viability loss, dose response, counter-screen for streptokinase expression inhibitor project, luminescence, BacTiterGlo (AID 1915); format: functional, organism-based;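 also: potency for reduction of bacterial viability or growth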
[4] = biological target: T1, Streptokinase A (Streptococcus pyogenes serotype M1, UniProt P10520); assay: S. pyogenes streptokinase expression inhibitors, potency, dose response, plasminogen activation absorbance, OD405 (AID 1914); format: functional, Streptococcus pyogenes M1 GAS;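 also: secreted streptokinase activity via plasminogen activation per viability signal from cell pellet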
T1 sequence (P10520 whole entry): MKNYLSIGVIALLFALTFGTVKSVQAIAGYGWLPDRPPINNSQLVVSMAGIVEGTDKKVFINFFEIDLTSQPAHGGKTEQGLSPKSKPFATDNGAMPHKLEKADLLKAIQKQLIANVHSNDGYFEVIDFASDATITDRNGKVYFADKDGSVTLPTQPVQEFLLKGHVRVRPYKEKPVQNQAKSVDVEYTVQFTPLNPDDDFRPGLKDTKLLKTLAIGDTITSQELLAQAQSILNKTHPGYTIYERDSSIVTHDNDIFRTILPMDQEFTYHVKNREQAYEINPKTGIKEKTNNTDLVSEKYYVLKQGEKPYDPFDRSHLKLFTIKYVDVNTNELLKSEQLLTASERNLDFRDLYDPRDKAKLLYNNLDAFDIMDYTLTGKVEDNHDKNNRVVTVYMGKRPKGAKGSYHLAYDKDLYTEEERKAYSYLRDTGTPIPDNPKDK

[5] = Luminescence Cell-Based Dose Confirmation HTS to Identify Activators of 5'UTR Stem-Loop Driven Alpha-Synuclein mRNA Translation in H4 Neuroglioblastoma Cells. [Related pubchem assays: 1829 (Project Summary), 1814 (Primary HTS)]; format: functional
[6] = biological target: T2, Protein skinhead-1 (Caenorhabditis elegans, UniProt P34707); format: functional
T2 sequence (P34707 whole entry): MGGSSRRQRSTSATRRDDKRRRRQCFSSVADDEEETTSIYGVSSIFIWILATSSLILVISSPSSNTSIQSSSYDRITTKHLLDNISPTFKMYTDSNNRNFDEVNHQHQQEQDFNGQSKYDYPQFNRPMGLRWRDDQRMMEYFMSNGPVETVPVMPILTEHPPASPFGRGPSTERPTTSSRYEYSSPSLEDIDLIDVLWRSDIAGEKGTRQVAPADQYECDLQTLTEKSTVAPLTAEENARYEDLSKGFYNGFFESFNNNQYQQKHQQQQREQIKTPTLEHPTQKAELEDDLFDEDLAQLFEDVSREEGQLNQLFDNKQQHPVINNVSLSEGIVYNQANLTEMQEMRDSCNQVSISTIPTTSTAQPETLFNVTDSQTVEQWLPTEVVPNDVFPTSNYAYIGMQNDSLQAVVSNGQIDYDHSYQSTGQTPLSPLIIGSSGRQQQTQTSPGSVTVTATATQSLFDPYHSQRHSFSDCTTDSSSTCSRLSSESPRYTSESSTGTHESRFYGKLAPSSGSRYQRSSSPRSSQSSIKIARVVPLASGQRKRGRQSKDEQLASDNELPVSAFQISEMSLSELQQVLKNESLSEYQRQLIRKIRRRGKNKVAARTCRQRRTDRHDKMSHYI

[7] = system: H4; assay: Luminescence Cell-Based Dose Response HTS to Identify Activators of 5'UTR Stem-Loop Driven Prion Protein mRNA Translation in H4 Neuroglioblastoma Cells. [Related pubchem assays: 1829 (Project Summary), 1814 (Primary HTS)]; format: functional; details: Homo sapiens
[8] = Luminescence Cell-Based Dose Response HTS to Identify Activators of Luciferase Translation or Activity in H4 […] Cells. [Related pubchem assays: 1829 (Project Summary), 1814 (Primary HTS)]; format: functional
[9] = biological target: Paired box protein Pax-8 (Homo sapiens, UniProt Q06710); assay: inhibitors of PAX8-driven TPO luciferase reporter, dose response, RMG-I cells, cherry-pick (AID 687027); format: functional, cell-based;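 also: luciferase reporter driven by Pax8 target thyroperoxidase promoter measured by SteadyGlo luminescence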
Chain of Paired box protein Pax-8 (Q06710 whole entry): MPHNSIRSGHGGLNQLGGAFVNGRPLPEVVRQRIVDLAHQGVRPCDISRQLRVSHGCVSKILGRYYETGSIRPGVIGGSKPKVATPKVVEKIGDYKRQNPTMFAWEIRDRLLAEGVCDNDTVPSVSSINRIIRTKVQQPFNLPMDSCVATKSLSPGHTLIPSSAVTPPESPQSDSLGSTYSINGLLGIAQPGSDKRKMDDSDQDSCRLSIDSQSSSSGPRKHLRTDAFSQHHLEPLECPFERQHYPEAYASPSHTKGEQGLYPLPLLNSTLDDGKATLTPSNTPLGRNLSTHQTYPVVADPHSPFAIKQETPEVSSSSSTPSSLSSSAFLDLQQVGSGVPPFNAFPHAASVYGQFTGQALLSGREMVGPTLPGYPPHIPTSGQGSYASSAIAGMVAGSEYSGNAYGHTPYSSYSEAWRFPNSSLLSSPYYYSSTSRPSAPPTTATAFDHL

[10] = inhibitors of SNCA 5'UTR-driven reporter translation, confirmation, H4 neuroglioma cells, luminescence (AID 1988); format: functional, cell-based
[11] = Luminescence Cell-Based Dose Response HTS to Identify Inhibitors of 5'UTR Stem-Loop Driven Prion Protein mRNA Translation in H4 Neuroglioblastoma Cells. [Related pubchem assays: 1827 (Project Summary), 1813 (Primary HTS)]; format: functional
[12] = C. albicans growth with fluconazole, confirmation, fluorescence, retest (AID 2467); format: functional, cell-based
[13] = biological target: Cytochrome P450 3A4 (Homo sapiens, UniProt P08684);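 also: CYP3A4 tested as one member of a cytochrome P450 panel screen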
Chain of Cytochrome P450 3A4 (P08684 whole entry): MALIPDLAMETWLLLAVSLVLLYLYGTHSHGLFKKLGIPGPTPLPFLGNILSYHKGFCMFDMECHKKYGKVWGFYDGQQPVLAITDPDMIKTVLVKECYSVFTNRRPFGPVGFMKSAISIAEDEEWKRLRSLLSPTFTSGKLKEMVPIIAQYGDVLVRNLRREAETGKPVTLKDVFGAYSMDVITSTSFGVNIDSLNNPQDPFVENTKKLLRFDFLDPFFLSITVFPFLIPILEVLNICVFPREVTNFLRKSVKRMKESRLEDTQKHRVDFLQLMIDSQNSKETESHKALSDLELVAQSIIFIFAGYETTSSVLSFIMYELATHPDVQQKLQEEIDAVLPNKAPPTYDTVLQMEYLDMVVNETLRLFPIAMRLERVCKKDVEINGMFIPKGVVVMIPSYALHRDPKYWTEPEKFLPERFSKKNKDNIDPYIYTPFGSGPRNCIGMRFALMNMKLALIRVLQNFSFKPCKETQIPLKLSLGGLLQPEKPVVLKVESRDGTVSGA

[14] = inhibitors of firefly luciferase expression or activity, dose response, H4 neuroglioma cells, luminescence (AID 1990); format: functional, cell-based
[15] = HEp-2 cell cytotoxicity, dose response, cytotoxicity control for RSV inhibitor project, HTS (AID 2410); format: functional; details: human respiratory syncytial virus
[16] = biological target: Cytochrome P450 2D6 (Homo sapiens, UniProt P10635);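 also: CYP2D6 member of a cytochrome P450 panel assay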
Chain of Cytochrome P450 2D6 (P10635 whole entry): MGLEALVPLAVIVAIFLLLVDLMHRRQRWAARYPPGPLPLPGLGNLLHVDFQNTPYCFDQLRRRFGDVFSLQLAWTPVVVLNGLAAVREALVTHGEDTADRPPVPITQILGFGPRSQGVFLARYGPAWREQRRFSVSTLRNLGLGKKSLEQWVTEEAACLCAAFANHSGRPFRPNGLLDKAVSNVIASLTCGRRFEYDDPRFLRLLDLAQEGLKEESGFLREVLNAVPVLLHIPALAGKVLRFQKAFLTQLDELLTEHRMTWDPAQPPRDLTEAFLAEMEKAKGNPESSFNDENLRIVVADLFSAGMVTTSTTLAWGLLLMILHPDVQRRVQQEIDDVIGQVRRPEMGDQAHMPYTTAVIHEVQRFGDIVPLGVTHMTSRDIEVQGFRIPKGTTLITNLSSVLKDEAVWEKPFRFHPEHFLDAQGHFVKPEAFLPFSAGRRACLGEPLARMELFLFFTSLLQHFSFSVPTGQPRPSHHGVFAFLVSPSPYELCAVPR

[17] = biological target: Cytochrome P450 2C9 (Homo sapiens, UniProt P11712)
Chain of Cytochrome P450 2C9 (P11712 whole entry): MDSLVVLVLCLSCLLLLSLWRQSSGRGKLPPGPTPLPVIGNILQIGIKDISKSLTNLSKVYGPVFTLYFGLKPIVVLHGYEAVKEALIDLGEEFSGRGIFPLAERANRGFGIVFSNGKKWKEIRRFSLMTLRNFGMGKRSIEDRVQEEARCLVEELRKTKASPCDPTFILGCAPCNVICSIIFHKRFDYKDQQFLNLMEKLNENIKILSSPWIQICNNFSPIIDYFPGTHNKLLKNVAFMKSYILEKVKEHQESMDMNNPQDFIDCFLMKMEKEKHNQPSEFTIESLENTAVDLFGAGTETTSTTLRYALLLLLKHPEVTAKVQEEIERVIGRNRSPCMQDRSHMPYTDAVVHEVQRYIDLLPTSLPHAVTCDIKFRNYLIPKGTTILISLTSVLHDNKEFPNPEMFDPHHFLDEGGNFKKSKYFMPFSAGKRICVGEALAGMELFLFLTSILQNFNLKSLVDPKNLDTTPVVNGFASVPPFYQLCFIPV

[18] = biological target: T3, Cytochrome P450 1A2 (Homo sapiens, UniProt P05177);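 also: PubChem cytochrome P450 panel assay, CYP1A2 panel member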
T3 sequence (P05177 whole entry): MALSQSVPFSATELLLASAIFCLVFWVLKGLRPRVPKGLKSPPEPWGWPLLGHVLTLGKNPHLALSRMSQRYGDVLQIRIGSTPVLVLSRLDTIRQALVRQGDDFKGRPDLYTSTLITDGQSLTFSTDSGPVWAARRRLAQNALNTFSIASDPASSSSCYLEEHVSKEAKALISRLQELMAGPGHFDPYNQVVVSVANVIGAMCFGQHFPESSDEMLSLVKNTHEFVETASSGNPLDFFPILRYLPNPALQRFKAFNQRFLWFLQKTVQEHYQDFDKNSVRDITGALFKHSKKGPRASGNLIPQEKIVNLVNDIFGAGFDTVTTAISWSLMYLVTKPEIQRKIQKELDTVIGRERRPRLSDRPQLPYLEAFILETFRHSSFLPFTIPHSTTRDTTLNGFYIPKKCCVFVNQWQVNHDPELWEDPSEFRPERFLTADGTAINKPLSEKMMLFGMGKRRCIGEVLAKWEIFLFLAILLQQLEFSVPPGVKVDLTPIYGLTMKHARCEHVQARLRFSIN

CCOC(=O)c1cc2c(=O)n3ccccc3nc2n(CCOC)/c1=N\C(=O)c1ccncc1
EC50 [1]: 115 µM (active)

COc1ccc(/C=C/C(=O)NC(=S)NNC(=O)Cc2cccs2)cc1
EC50 [2]: 2.45 µM (active) | EC50 [3]: 20.9 µM (active) | EC50 [4]: > 150 µM (not active)

CC(C)OC(=O)c1cccnc1N1CCN(c2cccc(Cl)c2)CC1
EC50 [2]: 20.3 µM (active) | EC50 [3]: > 150 µM (not active) | EC50 [4]: 19.3 µM (active)

C=CCSc1ncc(-c2ccccc2)cn1
EC50 [5]: 25.3 µM (active) | IC50 [6]: 11.4 µM (active) | EC50 [7]: 24.5 µM (active) | EC50 [8]: 16 µM (active)

N#Cc1ccc2nc(-c3ccc(CN4CCC(n5c(O)nc6ccccc65)CC4)cc3)c(-c3ccccc3)nc2c1
AC50 [9]: 8.95 µM (active)

N#Cc1cc2cc3c(cc2nc1SCC(=O)N1CCOCC1)OCCO3
EC50 [10]: 5.54 µM (active) | EC50 [11]: > 120 µM (not active)

CCCCCCN(C(=O)CCCN1C(=O)NC(c2ccc(-c3ccccc3)cc2)C(C(=O)OCc2ccccc2)=C1C)C(C)C(=O)NCCCC (centres undefined)
AC50 [9]: 12.2 µM (active)

Cn1ccnc1CN1CCCCC1C(=O)Nc1ccc(Oc2cccnc2)cc1 (centres undefined)
EC50 [5]: > 120 µM (not active) | EC50 [7]: > 120 µM (not active) | EC50 [8]: > 120 µM (not active)

O=C(COc1ccc(Cl)cc1)NC1CCSC1=O (centres undefined)
EC50 [1]: > 160 µM (inactive)

C/C(=N\NC(=O)c1cc2ccccc2cc1O)c1ccc2c(c1)OCO2
EC50 [2]: 3.73 µM (active) | EC50 [3]: 21.9 µM (active) | EC50 [4]: 6.65 µM (active)

Cc1ccc(S(=O)(=O)N(C)C[C@H]2Oc3ccc(NC(=O)Cc4ccccc4)cc3C(=O)N([C@H](C)CO)C[C@@H]2C)cc1
AC50 [9]: 29.8 µM (active)

Cc1nn(-c2ccccc2)c(Cl)c1/C=N\NC(=O)c1cnccn1
EC50 [5]: 23.6 µM (active) | EC50 [7]: 15.3 µM (active) | EC50 [8]: 14 µM (active)

Cc1[nH]c2ccccc2c1C(=O)/C=C/c1ccccc1Cl
EC50 [5]: 7.39 µM (active) | EC50 [7]: 10.1 µM (active)

CCOC(=O)c1cccnc1SCC(=O)NC(C)CC (centres undefined)
EC50 [2]: > 150 µM (not active) | EC50 [3]: > 150 µM (not active) | EC50 [4]: > 150 µM (not active)

C[C@@H]1CCCCO[C@H](CN(C)Cc2ccccc2)[C@H](C)CN([C@H](C)CO)C(=O)c2cc(NC(=O)Nc3ccc(C(F)(F)F)cc3)ccc2O1
AC50 [9]: 5.05 µM (active)

O=C(c1ccccc1)N1CCN2C(=O)c3ccccc3C12c1ccc(Cl)cc1 (centres undefined)
EC50 [5]: > 120 µM (not active) | EC50 [7]: 15.4 µM (active) | EC50 [8]: 34.9 µM (active)

NNC(=O)c1ccc(OCC2CC(c3ccc(Cl)cc3)=NO2)cc1 (centres undefined)
EC50 [2]: > 150 µM (not active) | EC50 [3]: > 150 µM (not active) | EC50 [4]: > 150 µM (not active)

CC(/C=C1\SC(=O)N(CC(=O)Nc2ccc(O)cc2)C1=O)=C\c1ccccc1
EC50 [2]: 13.8 µM (active) | EC50 [3]: 31.1 µM (active) | AC50 [9]: 64.3 µM (active) | EC50 [4]: > 150 µM (not active)

COCCC/N=C(\c1ccco1)n1c(=S)nc(-c2ccco2)n(CCCOC)c1=S
EC50 [5]: 11.9 µM (active) | EC50 [7]: > 120 µM (not active) | EC50 [8]: 11.6 µM (active)

CN(C(=O)CC(NC(=O)c1ccccc1)(c1ccccc1)c1ccccc1)c1ccccc1
EC50 [12]: 4.72 µM (active) | AC50 [13]: 0.708 µM (inconclusive) | EC50 [1]: 30.5 µM (active)

COc1ccc(C(=O)Nc2ccc(-c3cn4ccsc4n3)cc2)cc1S(=O)(=O)N1CCOCC1
EC50 [10]: 60.6 µM (active) | EC50 [14]: > 120 µM (not active) | EC50 [11]: > 120 µM (not active)

N=C(N)NC(=O)c1nc(Cl)c(N2CCCCCC2)nc1N [N,N-HEXAMETHYLENEAMILORIDE]
CC50 [15]: 10.5 µM (active) | AC50 [16]: 39.8 µM (inconclusive)

C[C@@H]1CCCCO[C@@H](CN(C)Cc2ccc(Cl)c(Cl)c2)[C@H](C)CN([C@H](C)CO)C(=O)c2cc(NC(=O)Nc3ccc(C(F)(F)F)cc3)ccc2O1
AC50 [9]: 2.39 µM (active)

COc1ccc(/C=C/C(=O)NC(=S)N2CCN(c3ccccc3OC)CC2)cc1
EC50 [2]: > 150 µM (not active) | EC50 [5]: 1.67 µM (active) | EC50 [3]: > 150 µM (not active) | EC50 [7]: 7.91 µM (active) | EC50 [8]: > 120 µM (not active) | EC50 [4]: > 150 µM (not active)

Cc1ccc(S(=O)(=O)N/N=C2/CC(c3ccccc3)Oc3ccccc32)cc1[N+](=O)[O-] (centres undefined)
EC50 [5]: 15.9 µM (active) | EC50 [7]: 13.8 µM (active) | EC50 [8]: > 120 µM (not active)

Nc1n[nH]c(SCc2cccc(Br)c2)n1
EC50 [10]: > 120 µM (not active) | EC50 [14]: > 120 µM (not active) | EC50 [11]: > 120 µM (not active)

N=C(c1ccc2ccccc2c1)c1ccccc1Cc1ccccc1
AC50 [17]: 7.94 µM (inconclusive) | AC50 [16]: 3.16 µM (inconclusive) | AC50 [18]: 0.501 µM (inconclusive)

Clc1ccccc1CNc1nc2ccccc2n2cnnc12
EC50 [10]: 35.8 µM (active) | EC50 [14]: 14.2 µM (active) | EC50 [11]: > 120 µM (not active)

COc1ccc(C(=O)C2CCCN(Cc3cccn3-c3ccccn3)C2)c(C)c1 (centres undefined)
EC50 [12]: 0.706 µM (active) | EC50 [1]: > 160 µM (inactive)
